The values that follow come from paper PMC11424896, “Overcoming drug resistance of cancer cells by targeting the FGF1/FGFR1 axis with honokiol or FGF ligand trap” (Frontiers in Pharmacology, 2024).

The experiment addresses T1, full-length FGFR1c (Homo sapiens, UniProt P11362).
T1 construct: gene FGFR1; full-length FGFR1c, pcDNA3.1, stably transfected in U2OS cells (U2OSR1)
The experiment is described as follows: Western blot of FGFR phosphorylation (pTyr653/[…]) in U2OSR1 cells. Format: cell-based. To be noted: 30 µM honokiol pre-treatment, then 10 ng/mL FGF1 with heparin, 15 min; serum-starved cells. For orientation: In western blotting, separated proteins are transferred to a membrane and probed.

T1 sequence (P11362 22-822): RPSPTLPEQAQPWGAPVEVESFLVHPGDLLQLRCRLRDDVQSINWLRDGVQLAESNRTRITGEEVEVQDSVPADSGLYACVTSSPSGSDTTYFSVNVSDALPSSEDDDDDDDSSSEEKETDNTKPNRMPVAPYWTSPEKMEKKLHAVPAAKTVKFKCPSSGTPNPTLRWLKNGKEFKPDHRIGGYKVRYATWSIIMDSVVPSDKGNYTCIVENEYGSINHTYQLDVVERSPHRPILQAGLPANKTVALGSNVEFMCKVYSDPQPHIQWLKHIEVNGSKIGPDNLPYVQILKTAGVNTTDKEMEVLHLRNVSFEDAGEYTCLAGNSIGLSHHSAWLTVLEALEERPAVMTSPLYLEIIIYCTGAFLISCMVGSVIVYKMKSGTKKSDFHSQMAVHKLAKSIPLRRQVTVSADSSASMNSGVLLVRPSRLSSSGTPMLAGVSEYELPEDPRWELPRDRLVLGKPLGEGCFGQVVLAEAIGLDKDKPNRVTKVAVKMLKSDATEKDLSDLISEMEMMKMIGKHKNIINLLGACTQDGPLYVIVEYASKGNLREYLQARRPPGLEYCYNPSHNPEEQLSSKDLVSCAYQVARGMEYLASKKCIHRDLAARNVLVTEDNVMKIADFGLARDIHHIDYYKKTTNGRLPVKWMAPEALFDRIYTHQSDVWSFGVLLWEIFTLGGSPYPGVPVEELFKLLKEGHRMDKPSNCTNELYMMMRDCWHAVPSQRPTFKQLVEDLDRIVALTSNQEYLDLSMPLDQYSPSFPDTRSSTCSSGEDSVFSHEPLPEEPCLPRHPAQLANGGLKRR

For the molecule `C=CCc1ccc(O)c(-c2ccc(O)c(CC=C)c2)c1` [honokiol], the “p-FGFR inhibition at 30 μM” value was “in cells treated with honokiol, FGF1 did not induce activation of either FGFR”.
